Entries after “also recorded” stand apart in the source; their conditions may differ.
Key:
[1] = test system: split intein constructs with short native extein sequences; assay: in vitro protein trans-splicing (PTS) assay, RP-HPLC / ESI-MS kinetics; assay type: biochemical
From the text: Thus, attention was focused on ‘second shell’ residues, those directly adjacent to the active site. To simplify this analysis, a batch mutagenesis strategy was employed in conjunction with a previously reported in vitro PTS assay.^5 This assay uses split intein constructs with short native extein sequences and allows the rates of branched intermediate formation (k1,k2) and its resolution to final splice products (k3) to be determined using a three state kinetic model.
Splicing reactions were carried out as adapted from a previously described protocol. Briefly, N- and C-inteins (15 μM Int^N, 10 μM Int^C) were individually preincubated in splicing buffer (100 mM sodium phosphates, 150 mM NaCl, 1 mM EDTA, pH 7.2) with 2 mM TCEP for 15 minutes. All splicing reactions were carried out at 30° C. unless otherwise indicated. Splicing reactions comparing the tolerance of Npu and Cfa to chaotropic agents were carried out with the indicated concentration of either Urea or guanidine hydrochloride. Splicing was initiated by mixing equal volumes of N- and C-inteins with aliquots removed at the indicated times and quenched by the addition of 8M guanidine hydrochloride, 4% TFA (3:1 v/v). For all splicing reactions containing either Npu^C-CFN or Cfa^C-CFN, reaction progress was monitored by RP-HPLC. […] (15 minute preincubation) were both observed to be inefficient, reaching ˜50% completion. This is likely due to aggregation (and inactivation) of the N-intein. Note, shorter preincubations of Cfa at 80° C. led to more efficient splicing.
Kinetic analysis was carried out as previously described.^1 Briefly, five species (1-5) are separated by RP-HPLC, and peak areas are determined. For ESI-MS, peak areas are calculated for species 1-4. Each individual peak was normalized against the total area of all peaks combined and reaction progress curves were plotted (n=3). The data were then fit in ProFit to the analytical solution to the coupled differential rate equation for the three state kinetic splicing model. Because the starting material cannot be separated from the linear thioester using this assay, the three state kinetic model collapses the binding step and the first two steps of the splicing reaction into one equilibrium. Each splicing reaction was carried out in triplicate with each replicate analyzed separately. The mean and standard deviation for all values (n=3) are reported.
All splicing reactions comparing Npu and Cfa were separated by RP-HPLC with peak areas once again calculated using the manufacturer's software. For these reactions, peak areas for the starting material and branched intermediate (species 1 and 2) and product (species 3, 4, 5) were calculated. The data was then fit to the first order rate equation using the GraphPad Prism software. [P](t)=[P]max·(1−e^−kt)
Where [P] is the normalized intensity of product, [P]max is this value at t=∞ (the reaction plateau), and k is the rate constant (s^−1). The mean and standard deviation (n=3) are reported.

[2] = test system: split intein constructs with short native extein sequences; settings: 30° C.; cited from earlier work
[3] = test system: split aminoglycoside phosphotransferase (KanR) in E. coli; assay: protein splicing coupled kanamycin resistance (Kan^R) assay; assay type: cell-based; settings: +2 position of the C-extein
Description: The protein splicing coupled kanamycin resistance (Kan^R) assay was carried out as previously described.^2,9 Briefly, a plasmid coding for a fragmented aminoglycoside phosphotransferase fused to a split intein (Cfa) with either F, G, R, or E present at the +2 position of the C-extein (plasmids 22-25) was transformed into DH5α competent cells and grown in starter cultures overnight (LB Broth, 100 μg/mL ampicillin, 18 hrs). These cultures were then diluted twenty-fold into a 96 well plate, and E. coli growth was measured at various concentrations of kanamycin (2.5, 10, 25, 50, 100, 250, 1000 μg/mL kanamycin with 100 μg/mL ampicillin). The cell optical density at 650 nm (OD650) at the 24-hour end point was fit to a dose response curve with variable slope.
Where ODmin was fixed to background absorbance at 650 nm. Each assay was carried out in triplicate, fit separately, and IC50 values are reported as the mean and standard deviation of IC50 for these three separate measurements.
The kanamycin resistance protein, KanR, is split and fused to N- and C-intein fragments (Cfa^N and Cfa^C). The +2 C-extein residue (red X) is varied in the system. In Panel B, IC50 values for kanamycin resistance of the CfaEKD (WT) and CfaGEP (GEP) inteins with indicated +2 C-extein residue are shown (error=standard error (n=3)).

[4] = refolding of N-inteins by stepwise dialysis; assay type: physicochemical; settings: stepwise dialysis into lysis buffer, 4° C.
Description: The N-inteins were refolded by stepwise dialysis into lysis buffer with 0.5 mM DTT at 4° C. This refolded protein was then treated with 10 mM TCEP and Ulp1 protease (overnight, RT) to cleave the His6-SUMO expression tag. The solution was then mixed with 4 mL Ni-NTA resin and incubated for 30 minutes at 4° C. The slurry was applied to a fritted column and the flow through was collected together with a 3 CV wash with lysis buffer. The protein was then treated with 10 mM TCEP, concentrated to 10 mL, and further purified by size exclusion chromatography using an S75 16/60 gel filtration column employing degassed splicing buffer (100 mM sodium phosphate, 150 mM NaCl, 1 mM EDTA, pH 7.2) as the mobile phase. Fractions were analyzed by SDS-PAGE, analytical RP-HPLC, and ESI-MS. Pure protein was stored by flash-freezing in liquid N2 following the addition of glycerol (20% v/v).

Cfa^C-CFN = assay: protein trans-splicing of extracted inclusion body under denaturing conditions; assay type: biochemical; settings: extracted from inclusion bodies with 6M urea
Description: E. coli inclusion bodies containing His6-Sumo-Cfa^N expression (plasmid 20) were resuspended and extracted overnight at 4° C. in lysis buffer containing 6M urea. Following centrifugation (35,000 rcf, 30 min), the supernatant was removed and the protein enriched by Ni-NTA under denaturing conditions (as described above). However, instead of refolding the protein, trans-splicing was directly initiated by the addition of Cfa^C-CFN (10 μM Cfa^C, 2 mM TCEP, 2 mM EDTA, 2 hrs, RT). Reaction progress was monitored by SDS-PAGE.

Npu: DnaE split intein from Nostoc punctiforme PCC73102; SEQ ID NO: 5 and 6 [reference compound]
splicing in urea ([1]; 8M urea): inactive | splicing activity at 80° C. ([1]; 80° C.): inactive | splicing in urea ([1]; above 4M urea): falls off dramatically | splicing activity in GuHCl ([1]; ≥3M GuHCl (3M in FIG. 2 legend)): no activity was observed; also recorded: inactive | rate of protein trans-splicing (PTS), t1/2 [2]: 50 s

Cfa: consensus fast DnaE split intein; Cfa^N SEQ ID NO: 2, Cfa^C SEQ ID NO: 3
splicing rate constant k (residual activity) ([1]; 4M GuHCl): 7e-05 s⁻¹ | splicing in urea ([1]; 8M urea): largely unaffected | branch formation rate, increase over Npu ([1]; 30° C., relative to Npu): 3 fold | branch resolution rate, increase over Npu ([1]; 30° C., relative to Npu): 2 fold | splices faster than Npu ([1]; 30° C., relative to Npu): 2.5 fold | splicing activity at 80° C. ([1]; 80° C.): maintains activity at 80° C., albeit with reduced yield of splice products | splicing completion ([1]; 80° C., 15 minute preincubation): ~50% | GuHCl concentration up to which the intein splices ([1]; guanidine hydrochloride added): up to 4 M | splicing activity in GuHCl ([1]; up to 3M GuHCl): little decrease in activity | C-extein +2 residue preference [3]: retains the preference for a bulky hydrophobic residue

A136S: A136S point mutant on the Ssp^C intein; plasmid 19, SEQ ID NO: 379 [Compound A136S]
effect of mutation on branch formation ([1]; mutation on Ssp^C): no impact | effect of mutation on rate of branch resolution ([1]; mutation on Ssp^C): two fold

Batch 3: Ssp^N batch mutant (S23E, E24K, E25R, N27E); plasmid 13, SEQ ID NO: 373
splicing completion ([1]; 30° C.): ~50% | precipitation during the refolding step [4]: significant protein precipitation was observed

Cfa^N fusion: model fusion protein His6-SUMO-AEY-Cfa^N; plasmid 20, SEQ ID NO: 381
modification by PTS without refolding (Cfa^C-CFN): efficiently, modified by PTS

Source: patent publication US11142550B2, “Split inteins with exceptional splicing activity” (THE TRUSTEES OF PRINCETON UNIVERSITY, priority 2016, dated 2021)
